The text below walks through data of patent US20050197356A1, “Non-immunosuppressive immunophilin ligands as neuroprotective and/or neuroregenerative agents” (Wyeth, priority 2004, published 2005).

Common to all, as to assay type: cell-based, rat
Assay [1] deals with cultured dopaminergic neurons. Kind of assay: High-affinity 3H-dopamine uptake after MPP+ induced toxicity in mesencephalic dopaminergic neuron cultures. On the procedure:
Mesencephalic dopaminergic neuron cultures were prepared as previously described in Pong et al., J Neurochem. 69: 986-994 (1997). Embryonic day 15 (E15) rat fetuses were collected and dissected in ice-cold phosphate-buffered saline (PBS). The ventral piece of tissue compromising the mesencephalic dopaminergic region was dissected out. Dissected pieces of tissue were pooled together and transferred to an enzymatic dissociation medium containing 20 IU/ml papain in Earle's balanced salt solution (Worthington Biochemical, Freehold, N.J., U.S.A.) and incubated for 60 minutes at 37° C. After enzymatic dissociation, the papain solution was aspirated and the tissue mechanically triturated with a fire-polished glass Pasteur pipette in complete medium [equal volumes of minimum essential medium (MEM) and F-12 nutrient mixture (Gibco BRL) supplemented with 0.1 mg/ml apotransferrin and 2.5 μg/ml insulin] containing 2,000 IU/ml DNase and 10 mg/ml ovomucoid protease inhibitor.
For dopamine uptake experiments, single-cell suspensions in complete media were seeded on poly-L-ornithine and laminin coated 24-well plates. The cultures were maintained for seven days prior to experimentation. Cultures were pretreated with various concentrations of the compound of formula (I) (washed with PBS and diluted with media to concentrations of 1 nM to 1000 nM) for 24 hours, then exposed to 10 μM the neurotoxin 1-methyl-4-phenylpyridinium (MPP^+) for 1 hour to assess the neuroprotective effect of the compound of formula (I) in cell culture. Following the 1 hour incubation, media was exchanged three times and fresh compound was added for an additional 48 hours.
More particularly, after 48 hours growth of mesencephalic dopaminergic neuron cultures following MPP^+ exposure, high-affinity ^3H-dopamine uptake was performed using a modified method described by Prochiantz et al., Nature 293: 570-572 (1981). Cultures were washed with pre-warmed phosphate-buffered saline (PBS) containing 5.6 mM glucose and 1 mM ascorbic acid. Cultures were then incubated for 15 minutes at 37° C. with 50 nM ^3H-dopamine (31 Ci/mmol, Du Pont-NEN, Wilmington, Del., U.S.A.). The cultures were washed twice with buffer and lysed with 0.5 N NaOH. The lysate was transferred to a scintillation vial containing Ultima Gold scintillation cocktail and radioactivity was determined with a liquid scintillation counter. Alternatively, culture lysates can be washed twice with buffer, incubated for 2 hours at room temperature with Optiphase Supermix scintillation cocktail (Wallac Scintillation Products, Gaithersburg, Md., USA), and radioactivity measured with a liquid scintillation counter.
MPP^+-induced neurotoxicity in a ^3H-dopamine uptake cell assay was measured. Neuroprotective effects in cell culture were measured by addition of the compound (1 nM to 1000 nM) to the culture in the presence of MPP.

The test system of assay [2] is cultured cortical neurons. The experiment in a line: Neurite outgrowth (ENO algorithm, Cellomics ArrayScan) in cultured cortical neurons. To be noted: 72 hours. On the procedure:
Dissociated cortical neuron cultures were prepared as previously described (Pong et al., cited above, 2001). Briefly, embryonic day 15 rat fetuses were collected and dissected in ice-cold PBS. Dissected cortices were pooled together and transferred to an enzymatic dissociation medium containing papain. After 30 minutes, the tissue was mechanically triturated with a fire-polished glass Pasteur pipette. Single-cell suspensions in complete media were seeded on poly-L-ornithine and laminin coated 96-well plates. After 24 hours, cultures were treated with various concentrations of the compound of formula I for 72 hours. The cultures were then fixed and stained with an anti-tubulin primary antibody (TUJ-1) and a fluorescent-tagged secondary antibody. Neurite outgrowth was determined by using the Enhanced Neurite Outgrowth (ENO) algorithm with the Cellomics ArrayScan and expressed as total neurite length per cell.

The test system of assay [3] is cultured cortical neurons. Kind of assay: Neurofilament content in cultured cortical neurons (neurofilament antibody, colorimetric). To be noted: 72 hours. On the procedure: (§1) Dissociated cortical neuron cultures were prepared as previously described [Pong et al., Exp Neurol. 2001 September; 171(1):84-97 (2001)]. Briefly, embryonic day 15 rat fetuses were collected and dissected in ice-cold PBS. Dissected cortices were pooled together and transferred to an enzymatic dissociation medium containing papain. After 30 min, the tissue was mechanically triturated with a fire-polished glass Pasteur pipette. Single-cell suspensions in complete media were seeded on poly-L-ornithine and laminin coated 96-well plates. 24 hours later, cultures were treated with various concentrations of compound of formula (I) for 72 hours. The cultures were then fixed and stained with a neurofilament primary antibody and a peroxidase-tagged secondary antibody. A peroxidase substrate (K-Blue Max) was added and the colorimetric change was measure on a colorimetric plate reader.
as §1, with “(Pong” for “[Pong”, “2001).” for “Exp Neurol. 2001 September; 171(1):84-97 (2001)].”, “ploy-L-ornithine” for “poly-L-ornithine”, “compound” for “compound of formula (I)”, “calorimetric” for “colorimetric”

For assay [4], the system named is cultured dorsal root ganglia. Kind of assay: Neurite outgrowth (ENO algorithm, Cellomics ArrayScan) in cultured dorsal root ganglia. The following applies: 72 hours. As for the experimental part:
Dissociated dorsal root ganglia cultures were prepared as previously described [A. Wood et al., “Stimulation of neurite outgrowth by immunophilin ligands: quantitative analysis by Cellomics Array scan” Society for Neuroscience (2004), abstract 104.3] Briefly, postnatal day 3-5 rat pups were euthanized. The spinal columns were removed and individual dorsal root ganglia (DRG) were dissected out. Dissected DRG were pooled together and transferred to an enzymatic dissociation medium containing papain. After 60 minutes, the tissue was mechanically triturated with a fire-polished glass Pasteur pipette. Single-cell suspensions in complete media were seeded on poly-L-ornithine and laminin coated 96-well plates. After 24 hours, cultures were treated with various concentrations of the compound of formula I for 72 hours. The cultures were then fixed and stained with an anti-tubulin primary antibody (TUJ-1) and a fluorescent-tagged secondary antibody. Neurite outgrowth was determined by using the Enhanced Neurite Outgrowth (ENO) algorithm with the Cellomics ArrayScan and expressed as total neurite length per cell.

Turning to `C[n+]1ccc(-c2ccccc2)cc1` [MPP^+, 1-methyl-4-phenylpyridinium, reference compound], the “3H-DOPAMINE UPTAKE (% UNTREATED CONTROL)” value in assay [1] (10 uM MPP+ alone, 1 hour exposure, uptake 48 hours later) turned out to be 40%.

With `CC/C1=C\CC(/C(C)=C/C(C)C(C)O)OC(=O)C2CCCCN2C(=O)C(=O)C2(O)OC(CCC2C)CC(O)C(C)C(O)CC(O)CC(O)/C(C)=C/C(C)CC(C)C1O` (centres unmarked) [meridamycin], the “Total Neurite Length (% Above Control)” value in assay [2] (10 nM) came to 19%; in assay [2] (100 nM), 40%; in assay [2] (1 μM), 113%; in assay [2] (10 μM), 152%; in assay [4] (10 nM), 4%; in assay [4] (100 nM), 9%. In addition, the “Total Neurite Length (% Above Control)” value came to 14% in assay [4] (1 μM) and 24% in assay [4] (10 μM). The “3H-DOPAMINE UPTAKE (% UNTREATED CONTROL)” value in assay [1] (1 nM meridamycin, 24 h pretreatment, 10 uM MPP+ 1 h, compound further 48 h) is given as 47%; in assay [1] (10 nM meridamycin, 24 h pretreatment, 10 uM MPP+ 1 h, compound further 48 h) it was 51%; in assay [1] (100 nM meridamycin, 24 h pretreatment, 10 uM MPP+ 1 h, compound further 48 h) it was 51%; in assay [1] (1000 Nm meridamycin, 24 h pretreatment, 10 uM MPP+ 1 h, compound further 48 h) it was 64%. In addition, the EC50 in assay [1] (Rattus norvegicus, Neuron, relative to maximum protection (84% uptake) afforded by 10 ng/mL GDNF, read-out: EC50 of neuroprotection against MPP+-induced neurotoxicity) turned out to be 555 nM; in assay [3] (Rattus norvegicus, Cortical neurone, cultured cortical neurons, read-out: EC50 of increased neuronal survival (neurofilament content)), 12 nM. The “NEUROFILAMENT CONTENT (FOLD-INCREASE ABOVE UNTREATED CONTROL)” value in assay [3] (10 nM meridamycin) is listed as 1.71 fold; in assay [3] (100 nM meridamycin), 2.24 fold; in assay [3] (1 μM meridamycin), 2.32 fold; in assay [3] (10 μM meridamycin) it was 2.56 fold.

B1: GDNF: GDNF, 10 ng/mL, positive control that afforded maximum protection (protein, UniProt P39905 78-211, looked up)
Glial cell line-derived …: SPDKQMAVLPRRERNRQAAAANPENSRGKGRRGQRGKNRGCVLTAIHLNVTDLGLGYETKEELIFRYCSGSCDAAETTYDKILKNLSRNRRLVSDKVGQACCRPIAFDDDLSFLDDNLVYHILRKHSAKRCGCI
Regarding B1, in assay [1] (10 ng/mL GDNF, MPP+-induced neurotoxicity), the “maximum protection (3H-dopamine uptake)” value amounted to 84%.

For orientation: EC50 means the concentration at which the effect is half-maximal.
